According to the Kinase Knowledgebase extract (Sharma et al. 2016):

Molecular target: MAPK14 (human) (UniProt Q16539)
Test: Inhibition of MAPK14 Kinase Activity

Chain of MAPK14 (human) (Q16539 whole entry, looked up): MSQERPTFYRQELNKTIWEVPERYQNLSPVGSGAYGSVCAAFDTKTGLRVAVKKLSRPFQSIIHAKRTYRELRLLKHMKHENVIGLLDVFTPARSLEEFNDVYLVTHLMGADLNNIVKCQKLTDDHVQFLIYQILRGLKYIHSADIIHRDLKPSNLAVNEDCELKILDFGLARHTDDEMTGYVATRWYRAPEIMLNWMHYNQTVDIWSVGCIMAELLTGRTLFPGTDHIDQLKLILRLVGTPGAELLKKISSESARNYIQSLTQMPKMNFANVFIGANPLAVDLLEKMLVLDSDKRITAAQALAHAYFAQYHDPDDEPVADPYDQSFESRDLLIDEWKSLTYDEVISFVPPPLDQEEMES

Row | Compound | IC50
1 | COC(=O)c1sc(NC(=O)c2ccc(F)cc2)c(C)c1C#N | < 15 µM
2 | Cc1c(NC(=O)c2cc(F)cc(N3CCOCC3)c2)sc(C(=O)Nc2ccc(F)cc2)c1Cl | < 15 µM
3 | COC(=O)c1sc(NC(=O)Nc2cc(C(C)(C)C)nn2-c2ccc(F)cc2)c(C)c1Cl | < 15 µM
4 | Cc1c(NC(=O)Nc2cc(C(C)(C)C)nn2-c2ccc(F)cc2)sc(C(=O)N2CCN(C)CC2)c1Cl | < 15 µM
5 | Cc1c(NC(=O)Nc2cc(C(C)(C)C)nn2-c2ccc(F)cc2)sc(C(=O)NCc2ccncc2)c1Cl | < 15 µM
6 | COC(=O)c1sc(NC(=O)Nc2cc(C(C)(C)C)nn2-c2ccc(F)cc2)c(C#N)c1C | < 15 µM
7 | CCOC(=O)c1ccc(NC(=O)Nc2cc(C(C)(C)C)nn2-c2ccc(F)cc2)s1 | < 15 µM
8 | Cc1c(NC(=O)c2ccc(F)cc2)sc(C(=O)Nc2ccc(F)cc2)c1Cl | < 15 µM
9 | CC(C)(C)c1cc(NC(=O)Nc2ccc(C(=O)N3CCOCC3)s2)n(-c2ccc(F)cc2)n1 | < 15 µM
10 | Cc1c(NC(=O)Nc2cc(C(C)(C)C)nn2-c2ccc(F)cc2F)sc(C(=O)N2CCOCC2)c1Cl | < 15 µM
11 | Cc1c(NC(=O)Nc2nnc(C3CCCCC3)s2)sc(C(=O)N2CCOCC2)c1Cl | < 15 µM
12 | Cc1c(NC(=O)c2ccc(F)cc2)sc(C(=O)N2CCOCC2)c1Cl | < 15 µM
13 | Cc1c(NC(=O)Nc2nnc(N3CCOCC3)s2)sc(C(=O)N2CCOCC2)c1Cl | < 15 µM
14 | Cc1c(NC(=O)Nc2cc(C(C)(C)C)nn2-c2ccc(F)cc2)sc(C(=O)N2CCOCC2)c1Cl | < 15 µM
15 | Cc1cc(NC(=O)c2cc(F)cc(N3CCOCC3)c2)sc1C(=O)N1CCOCC1 | < 15 µM
16 | Cc1c(NC(=O)c2cc(F)cc(N3CCOCC3)c2)sc(C(=O)N2CCOCC2)c1Cl | < 15 µM
17 | COC(=O)c1sc(NC(=O)c2cc(F)cc(N3CCOCC3)c2)c(C)c1Cl | < 15 µM
